{"source": "patent US20240058283A1", "about": "“THE MODE OF ACTION OF N-MeDCPA ON TRPC CHANNELS” (West Virginia University Board of Governors on Behalf of …, priority 2022, published 2024)", "key": {"[1]": {"test": "Metabolite formation in mouse liver S9", "type": "in vitro ADME", "conditions": "cofactors-fortified mouse liver S9, 37 degrees centigrade, 1 hour; LC-MS/MS", "experimental": "Drug Synthesis—ELP-004 (N-MeDCPA) was synthesized as described in U.S. patent Ser. No. 10/682,320. […] Metabolites formed after incubations using either cofactors-fortified mouse or human liver S9 (mouse liver S9; human liver S9) at 37 degrees centigrade for 1 hour. The reaction was quenched by ultracentrifugation. The supernatant was analyzed using LC-MS/MS analysis using Accela LC (Thermo Scientific, Inc., San Jose, CA) coupled to an LTQ LX or to LTQ Orbitrap XL.\nELP-004 is N-(3,4-dichlorophenyl)-N-methylpropanamide. The core structure of ELP-004 is an aniline compound. Aniline compounds, generally, have a high risk of forming reactive metabolites. ELP-004 was specifically designed to preclude formation of reactive metabolites. Methylation of the amide nitrogen improves metabolic stability."}, "[2]": {"test_system": "CYP enzymes", "test": "Induction of CYP enzymes", "type": "in vitro ADME"}, "[3]": {"target": "T1, TRPC4 (Homo sapiens, UniProt Q9UBN4)", "T1 construct": "expressed in transfected cells; host or cells: HEK293 (transient transfection)", "T1 sequence (Q9UBN4 1-977)": "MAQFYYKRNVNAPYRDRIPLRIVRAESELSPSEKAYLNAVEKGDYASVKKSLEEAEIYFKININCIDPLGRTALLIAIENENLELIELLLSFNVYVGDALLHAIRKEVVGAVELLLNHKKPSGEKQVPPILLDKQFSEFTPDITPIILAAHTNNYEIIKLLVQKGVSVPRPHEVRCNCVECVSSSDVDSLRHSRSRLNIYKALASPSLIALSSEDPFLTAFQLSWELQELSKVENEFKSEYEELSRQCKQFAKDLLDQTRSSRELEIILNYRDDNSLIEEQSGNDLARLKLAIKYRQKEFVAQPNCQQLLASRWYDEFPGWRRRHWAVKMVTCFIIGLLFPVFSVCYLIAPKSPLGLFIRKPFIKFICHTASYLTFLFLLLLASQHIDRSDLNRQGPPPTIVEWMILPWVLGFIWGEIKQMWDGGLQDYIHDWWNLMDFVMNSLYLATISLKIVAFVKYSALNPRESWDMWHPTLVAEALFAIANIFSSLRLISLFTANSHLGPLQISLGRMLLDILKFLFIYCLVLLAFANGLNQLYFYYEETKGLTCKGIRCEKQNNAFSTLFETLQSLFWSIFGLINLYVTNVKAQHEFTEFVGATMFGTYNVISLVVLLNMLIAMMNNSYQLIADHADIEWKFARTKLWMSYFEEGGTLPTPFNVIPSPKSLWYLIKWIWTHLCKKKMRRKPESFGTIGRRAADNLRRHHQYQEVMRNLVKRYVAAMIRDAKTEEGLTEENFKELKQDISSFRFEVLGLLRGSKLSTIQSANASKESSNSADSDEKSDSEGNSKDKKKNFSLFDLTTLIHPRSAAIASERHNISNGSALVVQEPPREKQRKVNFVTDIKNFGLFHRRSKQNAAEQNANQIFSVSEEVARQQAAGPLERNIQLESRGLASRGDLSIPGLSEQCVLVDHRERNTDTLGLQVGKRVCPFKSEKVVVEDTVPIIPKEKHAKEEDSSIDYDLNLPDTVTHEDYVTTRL", "test": "FIG. 4 TRPC4 overexpressing cells, fura, OAG in the presence of Ca2+", "type": "cell-based", "conditions": "TRPC4 O/E cells, Ca2+ present, N=4", "excerpt": "The assay was done in the presence of Ca^2+. OAG (1-Oleoyl-2-acetyl-sn-glycerol) is a cell permeable DAG analog and directly activates these TRPC channels (i.e. TRPC4 and TRPC5)."}, "[4]": {"test_system": "bone erosion in collagen-induced arthritis (CIA)", "test": "Collagen-induced arthritis (CIA) bone erosion in mice", "type": "in vivo", "excerpt": "Inflammatory arthritis often requires treatments with serious side effects. Later in arthritis, bone erosion is a major problem that causes severe pain and debilitation. There is no small molecule drug available to specifically treat arthritis bone erosion. […] In previous studies, we had focused on store-operated Ca^2+ entry as the target of ELP-004, since Orail is required for osteoclast differentiation and ELP-004 blocks RANKL-induced osteoclast differentiation and SOCE at similar concentrations. However, ELP-004 blocks bone erosion in vivo at a remarkable 1000-fold higher efficacy, leading us to question the identity of the critical ion channel. To address this question, we performed a series of ELP-004 dose responses on HEK293 cells overexpressing different combinations of STIM/Orai, TRPC channels or CaV1.2. Remarkably, all TRPC channels were highly sensitive to ELP-004, leading us to consider the possibility that TRPC channels are the true target in arthritis-induced bone erosion. We are currently assessing the possibility that ELP-004 may inhibit osteoclastogenesis with higher efficacy when driven by inflammatory cytokines, both in vitro and in vivo. […]"}}, "data": [{"smiles": "CCC(=O)N(C)c1ccc(Cl)c(Cl)c1", "note": "[ELP-004, N-(3,4-dichlorophenyl)-N-methylpropanamide]", "values": [{"measurement": "formation of reactive or toxic metabolites", "setting": "[1]", "result": "No reactive or toxic compounds were formed"}, {"measurement": "effect on induction of CYP enzymes", "setting": "[2]", "result": "no deleterious effect on induction of CYP enzymes"}, {"measurement": "IC50", "setting": "[3]", "result": 172, "unit": "nM"}, {"measurement": "efficacy of blocking bone erosion in vivo relative to RANKL-induced osteoclast differentiation and SOCE", "setting": "[4]; in vivo versus in vitro concentrations", "result": 1000, "unit": "fold"}, {"measurement": "bone erosion in collagen-induced arthritis", "setting": "[4]; mice, even after symptoms of arthritis were measurable", "result": "strongly suppressed bone erosion"}]}]}
